Patent publication US8680159B2, “Bradykinin 1 receptor modulating compounds” (Gruenenthal GmbH, priority 2010, dated 2014)

Tests used:
[1] = molecular target: T1, human B1R receptor (CHO K1 cells stably transfected with the human B1R gene) (Homo sapiens, UniProt P46663); assay: Functional study on the bradykinin receptor 1 (B1R), Ca2+ fluorescence (Fluo-4) FLIPR/Novostar assay, hB1R cells; assay type: cell-based; settings: CHO-K1, read-out: % inhibition (human B1R) at 10 μM
T1 construct: expressed in transfected cells; host or cells: CHO K1 cells (Chinese hamster ovary), stably transfected
T1 sequence (P46663 1-353): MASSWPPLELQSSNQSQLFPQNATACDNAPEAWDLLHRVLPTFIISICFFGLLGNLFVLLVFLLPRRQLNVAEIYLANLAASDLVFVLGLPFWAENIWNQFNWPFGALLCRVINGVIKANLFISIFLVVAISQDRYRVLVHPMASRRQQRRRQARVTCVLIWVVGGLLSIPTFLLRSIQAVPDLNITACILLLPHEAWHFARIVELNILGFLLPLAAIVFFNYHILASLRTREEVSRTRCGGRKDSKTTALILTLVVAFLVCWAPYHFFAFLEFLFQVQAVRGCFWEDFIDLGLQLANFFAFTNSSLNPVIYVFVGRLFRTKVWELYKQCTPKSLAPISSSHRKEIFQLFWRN
Procedure, shortened: (§1)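 Test compounds (10 μM) were added first and the Ca2+ rise was scored as % activation against Lys-Des-Arg9-bradykinin (≥50 nM, human) or Des-Arg9-bradykinin (≥1 μM, rat). After 6-20 min, the matching agonist was given at its EC80, and % inhibition relative to maximal achievable inhibition was calculated.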

[2] = molecular target: T2, B1R receptor of the rat (CHO K1 cells stably transfected with the B1R gene of the rat) (Rattus norvegicus, UniProt P97583); assay: Functional study on the bradykinin receptor 1 (B1R), Ca2+ fluorescence (Fluo-4) FLIPR/Novostar assay, rB1R cells; assay type: cell-based; settings: CHO-K1, 10 μM, read-out: % inhibition (rat B1R) at 10 μM
T2 construct: expressed in transfected cells; host or cells: CHO K1 cells (Chinese hamster ovary), stably transfected
T2 sequence (P97583 1-337): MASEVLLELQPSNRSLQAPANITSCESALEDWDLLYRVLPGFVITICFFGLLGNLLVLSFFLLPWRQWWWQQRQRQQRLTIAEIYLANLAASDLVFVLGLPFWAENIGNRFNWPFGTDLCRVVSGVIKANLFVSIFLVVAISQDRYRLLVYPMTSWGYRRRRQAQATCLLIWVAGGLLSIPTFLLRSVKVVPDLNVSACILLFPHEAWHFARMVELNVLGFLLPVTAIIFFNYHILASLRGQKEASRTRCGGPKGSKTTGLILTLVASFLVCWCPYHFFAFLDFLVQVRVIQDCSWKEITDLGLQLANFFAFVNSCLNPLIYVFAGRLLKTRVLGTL
Procedure, shortened: as §1

inhibition at 10 µM [1]	inhibition at 10 µM [2]	SMILES
100%	98%	CN(C(=O)c1ccc2c(c1)[C@H](NC(=O)c1cccc(C(F)(F)F)c1Cl)CC2)C1CCN(c2ccncc2)CC1 [Example H-24, (3R)-3-[[2-Chloro-3-(trifluoromethyl)-benzoyl]amino]-N-methyl-N-(1-pyridin-4-yl-piperidin-4-yl)-2,3-dihydro-1H-indene-5-carboxylic acid amide]
99%	100%	CN(C(=O)c1ccc2c(c1)[C@H](NC(=O)c1ccccc1F)CC2)C1CCN(c2ccncc2)CC1 [Example H-29, (3R)-3-[(2-Fluoro-benzoyl)amino]-N-methyl-N-(1-pyridin-4-yl-piperidin-4-yl)-2,3-dihydro-1H-indene-5-carboxylic acid amide]
100%	99%	CN(C(=O)c1ccc2c(c1)[C@H](NC(=O)c1ccccc1C(F)(F)F)CC2)C1CCN(c2ccncc2)CC1 [Example H-30, (3R)-N-Methyl-N-(1-pyridin-4-yl-piperidin-4-yl)-3-[[2-(trifluoromethyl)-benzoyl]amino]-2,3-dihydro-1H-indene-5-carboxylic acid amide]
100%	101%	CN(C(=O)c1ccc2c(c1)[C@H](NC(=O)c1c(F)cccc1Cl)CC2)C1CCN(c2ccncc2)CC1 [Example H-32, (3R)-3-[(2-Chloro-6-fluoro-benzoyl)amino]-N-methyl-N-(1-pyridin-4-yl-piperidin-4-yl)-2,3-dihydro-1H-indene-5-carboxylic acid amide]
100%	101%	CN(C(=O)c1ccc2c(c1)[C@H](NS(=O)(=O)c1ccccc1Cl)CC2)C1CCN(c2ccncc2)CC1 [Example H-33, (3R)-3-[[(2-Chlorophenyl)sulfonyl]amino]-N-methyl-N-(1-pyridin-4-yl-piperidin-4-yl)-2,3-dihydro-1H-indene-5-carboxylic acid amide]
100%	105%	CN(C(=O)c1ccc2c(c1)[C@H](NC(=O)Cc1ccccc1Cl)CC2)C1CCN(c2ccncc2)CC1 [Example H-35, (3R)-3-[[2-(2-Chlorophenyl)-acetyl]amino]-N-methyl-N-(1-pyridin-4-yl-piperidin-4-yl)-2,3-dihydro-1H-indene-5-carboxylic acid amide]
100%	100%	CN(C(=O)c1ccc2c(c1)[C@H](NC(=O)c1ccccc1Cl)CC2)C1CCN(c2ccncc2)C1 (stereo partly drawn) [Example H-39, (3R)-3-[(2-Chloro-benzoyl)amino]-N-methyl-N-(1-pyridin-4-yl-pyrrolidin-3-yl)-2,3-dihydro-1H-indene-5-carboxylic acid amide]
100%	98%	COc1ncccc1C(=O)N[C@@H]1CCc2ccc(C(=O)N(C)C3CCN(c4ccncc4)CC3)cc21 [Example H-41, 2-Methoxy-N-[(1R)-6-[methyl-(1-pyridin-yl-piperidin-4yl)-carbamoyl]-2,3-dihydro-1H-inden-1-yl]-pyridine-3-carboxylic acid amide]

Further lines, the compound ahead of its results:

SMILES	inhibition at 10 µM [1]	inhibition at 10 µM [2]
CN(C(=O)c1ccc2c(c1)[C@H](NC(=O)Cc1ccccc1)CC2)C1CCN(c2ccncc2)CC1 [Example H-25, (3R)-N-Methyl-3-[(2-phenyl-acetyl)amino]-N-(1-pyridin-4-yl-piperidin-4-yl)-2,3-dihydro-1H-indene-5-carboxylic acid amide]	100%	96%
CN(C(=O)c1ccc2c(c1)CC[C@H]2N1Cc2cccc(Cl)c2C1=O)C1CCN(c2ccccn2)CC1 [Example H-26, (1R)-1-(4-Chloro-3-oxo-1,2-dihydro-isoindol-2-yl)-N-methyl-N-(1-pyridin-2-yl-piperidin-4-yl)-2,3-dihydro-1H-indene-5-carboxylic acid amide]	52%	0%
CN(C(=O)c1ccc2c(c1)CC[C@H]2N1Cc2cccc(Cl)c2C1=O)C1CCN(Cc2ccncc2)CC1 [Example H-27, (1R)-1-(4-Chloro-3-oxo-1,2-dihydro-isoindol-2-yl)-N-methyl-N-[1-(pyridin-4-yl-methyl)-piperidin-4-yl]-2,3-dihydro-1H-indene-5-carboxylic acid amide]	74%	11%
CC(C)CC(=O)N[C@@H]1CCc2ccc(C(=O)N(C)C3CCN(c4ccncc4)CC3)cc21 [Example H-28, (3R)-N-Methyl-3-(3-methyl-butanoylamino)-N-(1-pyridin-4-yl-piperidin-4-yl)-2,3-dihydro-1H-indene-5-carboxylic acid amide]	100%	100%
CN(C(=O)c1ccc2c(c1)[C@H](NC(=O)c1cncnc1)CC2)C1CCN(c2ccncc2)CC1 [Example H-31, N-[(1R)-6-[Methyl-(1-pyridin-4-yl-piperidin-4yl)carbamoyl]-2,3-dihydro-1H-inden-1-yl]-pyrimidine-5-carboxylic acid amide]	100%	70%
CC(C)CC(=O)N[C@@H]1CCc2cc(C(=O)N(C)C3CCN(c4ccncc4)CC3)ccc21 [Example H-34, (1R)-N-Methyl-1-(3-methyl-butanoylamino)-N-(1-pyridin-4-yl-piperidin-4-yl)-2,3-dihydro-1H-indene-5-carboxylic acid amide]	64%	7%
CN(C(=O)c1ccc2c(c1)[C@H](NC(=O)c1cnccc1C(F)(F)F)CC2)C1CCN(c2ccncc2)CC1 [Example H-36, N-[(1R)-6-[Methyl-(1-pyridin-4-yl-piperidin-4-yl)-carbamoyl]-2,3-dihydro-1H-inden-1-yl]-4-(trifluoromethyl)-pyridine-3-carboxylic acid amide]	100%	105%
CN(C(=O)c1ccc2c(c1)[C@H](NC(=O)c1cccnc1C(F)(F)F)CC2)C1CCN(c2ccncc2)CC1 [Example H-37, N-[(1R)-6-[Methyl-(1-pyridin-4-yl-piperidin-4-yl)-carbamoyl]-2,3-dihydro-1H-inden-1-yl]-2-(trifluoromethyl)-pyridine-3-carboxylic acid amide]	100%	107%
O=C(N[C@@H]1CCc2ccc(C(=O)N(C3CC3)C3CCN(c4ccncc4)CC3)cc21)c1ccccc1Cl [Example H-38, (3R)-3-[(2-Chloro-benzoyl)amino]-N-cyclopropyl-N-(1-pyridin-4-yl-piperidin-4-yl)-2,3-dihydro-1H-indene-5-carboxylic acid amide]	100%	103%
CN1CCC(N2CCC(N(C)C(=O)c3ccc4c(c3)[C@H](NC(=O)c3ccccc3Cl)CC4)CC2)CC1 [Example H-40, (3R)-3-[(2-Chloro-benzoyl)amino]-N-methyl-N-[1-(1-methyl-piperidin-4-yl)-piperidin-4-yl]-2,3-dihydro-1H-indene-5-carboxylic acid amide]	52%	73%
CN1CCC(N2CCC(NC(=O)c3ccc4c(c3)CC[C@H]4N3Cc4cccc(Cl)c4C3=O)CC2)CC1 [Example H-42, (1R)-1-(4-Chloro-3-oxo-1,2-dihydro-isoindol-2-yl)-N-[1-(1-methyl-piperidin-4-yl)-piperidin-4-yl]-2,3-dihydro-1H-indene-5-carboxylic acid amide]	65%	18%
CN(C(=O)c1ccc2c(c1)CC[C@H]2N1Cc2cccc(Cl)c2C1=O)C1CCN(CCc2ccncc2)CC1 [Example H-43, (1R)-1-(4-Chloro-3-oxo-1,2-dihydro-isoindol-2-yl)-N-methyl-N-[1-(2-pyridin-4-yl-ethyl)-piperidin-4-yl]-2,3-dihydro-1H-Indene-5-carboxylic acid amide]	22%	51%
CN(C(=O)c1ccc2c(c1)OCC[C@H]2NC(=O)c1ccccc1Cl)C1CCN(c2ccncc2)CC1 [Example H-44, (4R)-4-[(2-Chloro-benzoyl)amino]-N-methyl-N-(1-pyridin-4-yl-piperidin-4-yl)-3,4-dihydro-2H-chromene-7-carboxylic acid amide]	94%	94%
CN(C(=O)c1ccc2c(c1)OCC[C@H]2N1Cc2cccc(Cl)c2C1=O)C1CCN(c2ccncc2)CC1 [Example H-45, (4R)-4-(4-Chloro-3-oxo-1,2-dihydro-isoindol-2-yl)-N-methyl-N-(1-pyridin-4-yl-piperidin-4-yl)-3,4-dihydro-2H-chromene-7-carboxylic acid amide]	98%	56%
